The subject of the test is P388 leukemia ip, CD2F1 mice, survival T/C. Briefly: NCI In Vivo Anticancer Drug Screen. Data for tumor model P388 Leukemia (intraperitoneal) in CD2F1 (CDF1) mice. Conditions: endpoint: median survival time, higher = longer survival. The method, boiled down:
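Mice carrying the transplanted tumor received test compound or vehicle. Survival was recorded in each group, and the value is the treated-group measurement divided by that of the vehicle-treated control group.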

Setting [1] is: dose: 100.0 mg/kg/injection, schedule: Q01DX009 (ip), vehicle: saline with Tween-80.
Where [2] appears, read: dose: 200.0 mg/kg/injection, schedule: Q01DX009 (ip), vehicle: saline with Tween-80.
The mark [3] stands for this setting: dose: 50.0 mg/kg/injection, schedule: Q01DX009 (ip), vehicle: Klucel (hydroxypropylcellulose) (HPC).
Where [4] appears, read: dose: 100.0 mg/kg/injection, schedule: Q01DX009 (ip), vehicle: Klucel (hydroxypropylcellulose) (HPC).
Setting [5] is: dose: 200.0 mg/kg/injection, schedule: Q01DX009 (ip), vehicle: Klucel (hydroxypropylcellulose) (HPC).
Setting [6] is: dose: 60.0 mg/kg/injection, schedule: Q01DX005 (ip), vehicle: saline with Tween-80.
Setting [7] is: dose: 25.0 mg/kg/injection, schedule: Q01DX009 (ip), vehicle: other.
[8] abbreviates: dose: 50.0 mg/kg/injection, schedule: Q01DX009 (ip), vehicle: other.
Setting [9] is: dose: 12.5 mg/kg/injection, schedule: Q01DX005 (ip), vehicle: Klucel (hydroxypropylcellulose) (HPC).
[10] abbreviates: dose: 25.0 mg/kg/injection, schedule: Q01DX005 (ip), vehicle: Klucel (hydroxypropylcellulose) (HPC).
[11] abbreviates: dose: 50.0 mg/kg/injection, schedule: Q01DX005 (ip), vehicle: Klucel (hydroxypropylcellulose) (HPC).
[12] abbreviates: dose: 100.0 mg/kg/injection, schedule: Q01DX005 (ip), vehicle: Klucel (hydroxypropylcellulose) (HPC).

“And” between values parts separate entries of the source, which are not always exact repeats. Identical values can stand only once. Inconclusive results and toxic doses are left out.

Regarding `CCN=C=NCCCN(C)C`, the T/C is 108 % of control (dose: 7.5 mg/kg/injection, schedule: Q01DX009 (ip), vehicle: saline); 102 % of control (dose: 7.5 mg/kg/injection, schedule: Q04DX003 (ip), vehicle: saline); 108 % of control (dose: 15.0 mg/kg/injection, schedule: Q01DX009 (ip), vehicle: saline); 99 % of control (dose: 15.0 mg/kg/injection, schedule: Q04DX003 (ip), vehicle: saline); 105 % of control (dose: 30.0 mg/kg/injection, schedule: Q01DX009 (ip), vehicle: saline); 98 % of control (dose: 30.0 mg/kg/injection, schedule: Q04DX003 (ip), vehicle: saline). For the same compound, the T/C (dose: 60.0 mg/kg/injection, schedule: Q01DX009 (ip), vehicle: saline) is 107 % of control.

Take `COc1ccc(C(=O)O)cc1`: the T/C by setting is: under setting [1], 101 % of control; under setting [2], 96 % of control; (dose: 400.0 mg/kg/injection, schedule: Q01DX009 (ip), vehicle: saline with Tween-80) 109 % of control.

Take `CC(=O)OCc1c(COC(C)=O)c(C(F)(F)F)n2c1CCC2`: the T/C by setting is: under setting [3], 90 % of control; under setting [4], 93 % of control; under setting [5], 104 % of control.

As to `N#Cc1c(N)nc2c(c1N)CCO2`, the T/C (dose: 50.0 mg/kg/injection, schedule: Q01DX009 (ip), vehicle: saline with Tween-80) is 93 % of control; the T/C under setting [1] is 96 % of control; the T/C under setting [2] was 99 % of control.

As to `COc1cc([C@@H]2OC[C@@H]3C(c4cc(OC)c5c(c4)OCO5)OC[C@@H]32)cc(OC)c1OC` (stereo partly specified), the T/C (dose: 5.0 mg/kg/injection, schedule: Q01DX009 (ip), vehicle: saline + Tween-80 + alcohol) is 102 % of control; the T/C (dose: 10.0 mg/kg/injection, schedule: Q01DX009 (ip), vehicle: saline + Tween-80 + alcohol) is 101 % of control; the T/C (dose: 20.0 mg/kg/injection, schedule: Q01DX009 (ip), vehicle: saline + Tween-80 + alcohol) was 105 % of control; the T/C (dose: 40.0 mg/kg/injection, schedule: Q01DX009 (ip), vehicle: saline + Tween-80 + alcohol) is 105 % of control.

For the compound `CCCN(CCC)c1nsc(N)n1`, the T/C was 113 % of control (dose: 7.5 mg/kg/injection, schedule: Q01DX009 (ip), vehicle: saline with Tween-80); 113 % of control (dose: 15.0 mg/kg/injection, schedule: Q01DX009 (ip), vehicle: saline with Tween-80); 118 % of control (dose: 30.0 mg/kg/injection, schedule: Q01DX009 (ip), vehicle: saline with Tween-80).

For the compound `CC(=O)c1c(Br)c2c3ccccc3c3ccccc3n2c1C`, the T/C reads like this: under setting [6], 107 % of control; (dose: 120.0 mg/kg/injection, schedule: Q01DX005 (ip), vehicle: saline with Tween-80) 106 % of control; (dose: 240.0 mg/kg/injection, schedule: Q01DX005 (ip), vehicle: saline with Tween-80) 92 % of control.

As to `CCCCCCCCCCCCCOCC(=O)O`, the T/C under setting [3] is 100 % of control, the T/C under setting [4] was 95 % of control and the T/C under setting [5] is 102 % of control.

In the case of `Cc1noc2nccnc12`, the T/C reads like this: (dose: 25.0 mg/kg/injection, schedule: Q04DX003 (ip), vehicle: saline with Tween-80) 100 % of control; (dose: 50.0 mg/kg/injection, schedule: Q04DX003 (ip), vehicle: saline with Tween-80) 91 % of control; (dose: 100.0 mg/kg/injection, schedule: Q04DX003 (ip), vehicle: saline with Tween-80) 91 % of control.

For `CCC[CH2][Sn]1([CH2]CCC)[O]C2C(OC)OC3COC(c4ccccc4)OC3C2[O]1` (stereo unspecified), the T/C runs as follows: (dose: 12.5 mg/kg/injection, schedule: Q04DX003 (ip), vehicle: saline) 105 % of control; (dose: 25.0 mg/kg/injection, schedule: Q04DX003 (ip), vehicle: saline) 110 % of control; (dose: 50.0 mg/kg/injection, schedule: Q04DX003 (ip), vehicle: saline) 112 % of control.

In the case of `Nc1cc(C(=O)Nc2ccc(C3=NCCN3)cc2)cc(C(=O)Nc2ccc(C3=NCCN3)cc2)c1`, the T/C (dose: 32.0 mg/kg/injection, schedule: Q01DX010 (ip), vehicle: saline) is 168 % of control.

On to `N#CCCSC(=S)N1CCN(C(=S)SCCC#N)C1=O`, for which the T/C (dose: 50.0 mg/kg/injection, schedule: Q01DX005 (ip), vehicle: saline with Tween-80) was 92 % of control; the T/C (dose: 100.0 mg/kg/injection, schedule: Q01DX005 (ip), vehicle: saline with Tween-80) was 87 % of control; the T/C (dose: 200.0 mg/kg/injection, schedule: Q01DX005 (ip), vehicle: saline with Tween-80) was 92 % of control.

For `Cc1ccc(NC(=O)/C(Cl)=C(\Cl)C(=O)O)cc1C`, the T/C is, setting by setting: (dose: 3.75 mg/kg/injection, schedule: Q01DX005 (ip), vehicle: saline with Tween-80) 96 % of control; (dose: 7.5 mg/kg/injection, schedule: Q01DX005 (ip), vehicle: saline with Tween-80) 102 % of control; (dose: 15.0 mg/kg/injection, schedule: Q01DX005 (ip), vehicle: saline with Tween-80) 103 % of control and 110 % of control; under setting [6], 104 % of control.

On to `CC(C)NC(=O)c1ccc(CBr)cc1`, for which the T/C was 95 % of control (dose: 1.56 mg/kg/injection, schedule: Q01DX009 (ip), vehicle: other); 95 % of control (dose: 3.13 mg/kg/injection, schedule: Q01DX009 (ip), vehicle: other); 98 % of control (dose: 6.25 mg/kg/injection, schedule: Q01DX009 (ip), vehicle: other); 93 % of control (dose: 12.5 mg/kg/injection, schedule: Q01DX009 (ip), vehicle: other); 112 % of control under setting [7]; 99 % of control under setting [8].

For `C/C(=N\O)C1CCN(Cc2ccccc2)CC1`, the T/C runs as follows: under setting [9], 105 % of control; under setting [10], 110 % of control; under setting [11], 100 % of control and 105 % of control.

`CC1(C)CC(N2CCN(CCO)CC2)=CC(=S)N1`: the T/C is 103 % of control under setting [11]; 93 % of control under setting [12]; 104 % of control (dose: 200.0 mg/kg/injection, schedule: Q01DX005 (ip), vehicle: Klucel (hydroxypropylcellulose) (HPC)).

`C=C(COC(C)=O)[C@@H](C)C(=O)C1OCOC(C2CC(=O)NC(=O)C2)[C@@H]1OC(C)=O` (stereo partly specified): the T/C reads like this: (dose: 0.01 mg/kg/injection, schedule: Q01DX009 (ip), vehicle: distilled water + alcohol) 98 % of control; (dose: 0.03 mg/kg/injection, schedule: Q01DX009 (ip), vehicle: distilled water + alcohol) 102 % of control; (dose: 0.06 mg/kg/injection, schedule: Q01DX009 (ip), vehicle: distilled water + alcohol) 102 % of control; (dose: 0.12 mg/kg/injection, schedule: Q01DX009 (ip), vehicle: distilled water + alcohol) 102 % of control.

Take `N#CC1=C(Nc2ccccc2)CCC1`: the T/C was 95 % of control under setting [9]; 101 % of control under setting [10]; 99 % of control and 101 % of control under setting [11]; 110 % of control under setting [12].

`CC(C)(CO)NC(=O)c1ccc(Br)cc1`: the T/C runs as follows: under setting [7], 100 % of control; under setting [8], 100 % of control; (dose: 100.0 mg/kg/injection, schedule: Q01DX009 (ip), vehicle: other) 104 % of control; (dose: 200.0 mg/kg/injection, schedule: Q01DX009 (ip), vehicle: other) 100 % of control; (dose: 400.0 mg/kg/injection, schedule: Q01DX009 (ip), vehicle: other) 104 % of control.

With `COc1ccc(N=C2C(=Nc3ccc(OC)cc3)N(c3ccc(OC)cc3)C(=S)N2C(=O)c2ccc(Cl)cc2)cc1`, the T/C by setting is: (dose: 50.0 mg/kg/injection, schedule: Q01DX005 (ip), vehicle: Klucel + Tween-80) 90 % of control; (dose: 100.0 mg/kg/injection, schedule: Q01DX005 (ip), vehicle: Klucel + Tween-80) 93 % of control; (dose: 200.0 mg/kg/injection, schedule: Q01DX005 (ip), vehicle: Klucel + Tween-80) 90 % of control.

For the origin of these results see PubChem BioAssay AID330 (DTP/NCI, 2004).
